The source of these data is US10899759B2, “Positive allosteric modulators of the muscarinic acetylcholine receptor M1” (Vanderbilt University, priority 2016, dated 2021).

What is called Emax is the maximal effect, on the per cent scale that the assay sets. In general, EC50 refers to the concentration that produces a half-maximal response.

This test has as its target T1, human mAChR M1 (Homo sapiens, UniProt P11229).
T1 construct: host or cells: CHO-K1
T1 sequence (P11229 1-460): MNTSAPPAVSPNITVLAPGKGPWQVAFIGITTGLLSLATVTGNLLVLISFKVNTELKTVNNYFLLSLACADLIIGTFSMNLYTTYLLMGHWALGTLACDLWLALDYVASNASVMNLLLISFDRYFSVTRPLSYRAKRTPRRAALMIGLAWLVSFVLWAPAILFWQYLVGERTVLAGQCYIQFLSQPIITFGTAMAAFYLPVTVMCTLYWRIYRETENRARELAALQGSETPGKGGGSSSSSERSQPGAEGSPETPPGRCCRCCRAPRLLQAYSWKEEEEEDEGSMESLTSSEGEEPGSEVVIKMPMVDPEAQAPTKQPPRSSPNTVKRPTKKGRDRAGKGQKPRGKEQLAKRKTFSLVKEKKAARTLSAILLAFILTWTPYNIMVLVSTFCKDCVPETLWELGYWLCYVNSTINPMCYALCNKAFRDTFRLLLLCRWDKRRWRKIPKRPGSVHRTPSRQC
In words: mAChR M1 cell-based functional assay (calcium mobilization, Fluo-4, FDSS). The following applies: CHO-K1 cells stably expressing hM1; for Emax: EC20 acetylcholine response, read-out: Human M1 Emax; for EC50: positive allosteric modulator activity as increase in the EC20 acetylcholine response. A digest of the protocol:
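CHO-K1 cells stably expressing muscarinic receptor, loaded with Fluo-4; 11-point 1:3 compound series added and calcium flux read over 300 s at 1 Hz. Agonism from direct calcium rise, PAM activity as potentiation of EC20 acetylcholine, antagonism as decrease of EC80 acetylcholine; four-parameter logistic fits.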

For `Cn1ccc2c(Cc3ccc(-c4cscn4)cc3)cc(C(=O)N[C@@H]3CCOC3)nc21` [Compound 34, 1-methyl-N-[(3R)-tetrahydrofuran-3-yl]-4-[(4-thiazol-4-ylphenyl)methyl]pyrrolo[2,3-b]pyridine-6-carboxamide], the Emax is 54.8% and the 50% effective concentration (EC50) turned out to be 2190 nM.

In the case of `Cn1ccc2c(Cc3ccc(-c4nccs4)cc3)cc(C(=O)N[C@H]3CCCC[C@@H]3O)nc21` [Compound 60, N-[(1S,2S)-2-hydroxycyclohexyl]-1-methyl-4-[(4-thiazol-2-ylphenyl)methyl]pyrrolo[2,3-b]pyridine-6-carboxamide], the Emax turned out to be 55.4% and the EC50 turned out to be 110 nM.

On to `Cc1nc(-c2ccc(Cc3cc(C(=O)N[C@@H]4CCOC4)nc4sccc34)cc2)co1` [Compound 137, 4-[[4-(2-methyloxazol-4-yl)phenyl]methyl]-N-[(3R)-tetrahydrofuran-3-yl]thieno[2,3-b]pyridine-6-carboxamide], for which the Emax amounted to 59.5% and the EC50 came to 1900 nM.

For `Cn1ccc(-c2ccc(Cc3cc(C(=O)NC4CCOC(C)(C)C4)nc4sccc34)cc2)n1` (stereo not shown) [Compound 90, N-(2,2-dimethyltetrahydropyran-4-yl)-4-[[4-(1-methylpyrazol-3-yl)phenyl]methyl]thieno[2,3-b]pyridine-6-carboxamide], the Emax was found to be 36.4% and the EC50 came out at 10 nM.

On to `COCCNC(=O)c1cc(Cc2ccc(-c3ccn(C)n3)cc2)c2ccsc2n1` [Compound 99, N-(2-methoxyethyl)-4-[[4-(1-methylpyrazol-3-yl)phenyl]methyl]thieno[2,3-b]pyridine-6-carboxamide], for which the Emax amounted to 62.8% and the EC50 is 3330 nM.

`CC1(C)COCCC1NC(=O)c1cc(Cc2ccc(-n3cccn3)cc2)c2ccsc2n1` (stereo not shown) [Compound 74, N-(3,3-dimethyltetrahydropyran-4-yl)-4-[(4-pyrazol-1-ylphenyl)methyl]thieno[2,3-b]pyridine-6-carboxamide]: the Emax came to 69.1% and the EC50 stood at 1290 nM.

For `Cn1ncc2c(Cc3ccc(-n4cccn4)cc3)cc(C(=O)N[C@H]3CCOC[C@@H]3O)nc21` [Compound 7, N-[(3R,4S)-3-hydroxytetrahydropyran-4-yl]-1-methyl-4-[(4-pyrazol-1-ylphenyl)methyl]pyrazolo[3,4-b]pyridine-6-carboxamide], the Emax worked out at 89% and the EC50 was determined as 200 nM.

On to `Cn1ccc(-c2ccc(Cc3cc(C(=O)NCC4CCOC4)nc4c3ccn4C)cn2)n1` (stereo not shown) [Compound 151, 1-methyl-4-[[6-(1-methylpyrazol-3-yl)-3-pyridyl]methyl]-N-(tetrahydrofuran-3-ylmethyl)pyrrolo[2,3-b]pyridine-6-carboxamide], for which the Emax stood at 76.4% and the EC50 amounted to 1210 nM.

With `Cn1ccc(-c2ccc(Cc3cc(C(=O)NC4CCOC(C)(C)C4)nc4sccc34)cn2)n1` (stereo not shown) [Compound 103, N-(2,2-dimethyltetrahydropyran-4-yl)-4-[[6-(1-methylpyrazol-3-yl)-3-pyridyl]methyl]thieno[2,3-b]pyridine-6-carboxamide], the Emax was 60.5% and the EC50 turned out to be 70 nM.

In the case of `Cn1ccc(-c2ccc(Cc3cc(C(=O)NC4CCOCC4)nc4sccc34)cn2)n1` [Compound 102, 4-[[6-(1-methylpyrazol-3-yl)-3-pyridyl]methyl]-N-tetrahydropyran-4-yl-thieno[2,3-b]pyridine-6-carboxamide], the Emax is 37.9% and the EC50 stood at 20 nM.

In the case of `Cn1ccc2c(Cc3ccc(-c4cscn4)cc3)cc(C(=O)NCC3CCOCC3)nc21` [Compound 26, 1-methyl-N-(tetrahydropyran-4-ylmethyl)-4-[(4-thiazol-4-ylphenyl)methyl]pyrrolo[2,3-b]pyridine-6-carboxamide], the Emax is 52.6% and the concentration giving a half-maximal response (EC50) was 410 nM.

As for `CC1CC(NC(=O)c2cc(Cc3ccc(-c4ccn(C)n4)nc3)c3ccn(C)c3n2)CC(C)O1` (stereo not shown) [Compound 148, N-(2,6-dimethyltetrahydropyran-4-yl)-1-methyl-4-[[6-(1-methylpyrazol-3-yl)-3-pyridyl]methyl]pyrrolo[2,3-b]pyridine-6-carboxamide], the Emax was determined as 82.4% and the EC50 is 940 nM.

Take `Cn1ccc2c(Cc3ccc(-c4nccs4)cc3)cc(C(=O)N[C@H]3CCOC[C@@H]3O)nc21` [Compound 59, N-[(3R,4S)-3-hydroxytetrahydropyran-4-yl]-1-methy1-4-[(4-thiazol-2-ylphenyl)methyl]pyrrolo[2,3-b]pyridine-6-carboxamide]: the Emax came to 57.3% and the EC50 amounted to 30 nM.

With `Cn1ccc(-c2ccc(Cc3cc(C(=O)NC4CC5(COC5)C4)nc4sccc34)cc2)n1` [Compound 96, 4-[[4-(1-methylpyrazol-3-yl)phenyl]methyl]-N-(2-oxaspiro[3.3]heptan-6-yl)thieno[2,3-b]pyridine-6-carboxamide], the Emax stood at 69.9% and the EC50 was determined as 280 nM.

`CCn1ccc2c(Cc3ccc(-n4cccn4)cc3)cc(C(=O)N[C@H]3CCC[C@@H]3O)nc21` [Compound 14, 1-ethyl-N-[(1S,2S)-2-hydroxycyclopentyl]-4-[(4-pyrazol-1-ylphenyl)methyl]pyrrolo[2,3-b]pyridine-6-carboxamide]: the Emax is 69.4% and the EC50 amounted to 150 nM.

`Cn1ccc(-c2ccc(Cc3cc(C(=O)NCC4CCOCC4)nc4sccc34)cc2)n1` [Compound 94, 4-[[4-(1-methylpyrazol-3-yl)phenyl]methyl]-N-(tetrahydropyran-4-ylmethyl)thieno[2,3-b]pyridine-6-carboxamide]: the Emax is 61.4% and the EC50 amounted to 630 nM.

On to `COCCNC(=O)c1cc(Cc2ccc(-c3cnn(C)c3)nc2)c2ccsc2n1` [Compound 127, N-(2-methoxyethyl)-4-[[6-(1-methylpyrazol-4-yl)-3-pyridyl]methyl]thieno[2,3-b]pyridine-6-carboxamide], for which the Emax stood at 63.8% and the EC50 was found to be 270 nM.

Turning to `Cn1ccc(-c2ccc(Cc3cc(C(=O)NCC4CCOCC4)nc4c3ccn4C)cc2)n1` [Compound 43, 1-methyl-4-[[4-(1-methylpyrazol-3-yl)phenyl]methyl]-N-(tetrahydropyran-4-ylmethyl)pyrrolo[2,3-b]pyridine-6-carboxamide], the Emax is 49.6% and the EC50 amounted to 610 nM.

As to `COCC(C)NC(=O)c1cc(Cc2ccc(-c3ccn(C)n3)cc2)c2ccsc2n1` (stereo not shown) [Compound 100, N-(2-methoxy-1-methyl-ethyl)-4-[[4-(1-methylpyrazol-3-yl)phenyl]methyl]thieno[2,3-b]pyridine-6-carboxamide], the Emax was found to be 63.5% and the EC50 came out at 480 nM.

Take `Cn1ccc2c(Cc3ccc(-c4nccs4)cc3)cc(C(=O)N[C@H]3CC[C@@H]3O)nc21` [Compound 63, N-[(1S,2S)-2-hydroxycyclobutyl]-1-methyl-4-[(4-thiazol-2-ylphenyl)methyl]pyrrolo[2,3-b]pyridine-6-carboxamide]: the Emax is 60.4% and the EC50 is 1500 nM.

With `COCC(C)NC(=O)c1cc(Cc2ccc(-c3cnn(C)c3)nc2)c2ccsc2n1` (stereo not shown) [Compound 128, N-(2-methoxy-1-methyl-ethyl)-4-[[6-(1-methylpyrazol-4-yl)-3-pyridyl]methyl]thieno[2,3-b]pyridine-6-carboxamide], the Emax amounted to 60.8% and the EC50 stood at 160 nM.

In the case of `Cn1ccc(-c2ccc(Cc3cc(C(=O)NC4COC4)nc4c3ccn4C)cc2)n1` [Compound 44, 1-methy1-4-[[4-(1-methylpyrazol-3-yl)phenyl]methyl]-N-(oxetan-3-yl)pyrrolo[2,3-b]pyridine-6-carboxamide], the maximum response (Emax) came to 56.1% and the EC50 worked out at 6280 nM.

For `O=C(N[C@@H]1CCOC1)c1cc(Cc2ccc(-n3cccn3)cc2)c2ccsc2n1` [Compound 78, 4-[(4-pyrazol-1-ylphenyl)methyl]-N-[(3R)-tetrahydrofuran-3-yl]thieno[2,3-b]pyridine-6-carboxamide], the Emax was 68.5% and the EC50 was 1720 nM.

In the case of `Cn1ccc(-c2ccc(Cc3cc(C(=O)NC4CC5(COC5)C4)nc4c3ccn4C)cc2)n1` [Compound 40, 1-methyl-4-[[4-(1-methylpyrazol-3-yl)phenyl]methyl]-N-(2-oxaspiro[3.3]heptan-6-yl)pyrrolo[2,3-b]pyridine-6-carboxamide], the Emax turned out to be 74% and the EC50 was determined as 750 nM.

On to `Cn1ccc2c(Cc3ccc(-c4cscn4)cc3)cc(C(=O)NC3CCOC(C)(C)C3)nc21` (stereo not shown) [Compound 25, N-(2,2-dimethyltetrahydropyran-4-yl)-1-methyl-4-[(4-thiazol-4-ylphenyl)methyl]pyrrolo[2,3-b]pyridine-6-carboxamide], for which the Emax is 76.7% and the EC50 came out at 670 nM.

As to `Cn1ccc2c(Cc3ccc(-c4cscn4)cc3)cc(C(=O)NC3CN(C4COC4)C3)nc21` [Compound 36, 1-methyl-N-[1-(oxetan-3-yl)azetidin-3-yl]-4-[(4-thiazol-4-ylphenyl)methyl]pyrrolo[2,3-b]pyridine-6-carboxamide], the Emax was 66% and the EC50 came out at 3120 nM.
